Where two headings read alike, the source gives them in different places.
Tests used:
[1] = system: NMM-IIA pS1943; test: pS1943 of NMM-IIA by phospho-specific flow cytometry; assay type: cell-based, human; conditions: under cytokine stimulation (SCF and Tpo)
Description: (§1) Cells were fixed with 4% paraformaldehyde in PBS for 10 min, washed with PBS and resuspended in 0.1% saponin in HBSS (staining medium). The samples were then stained with antibodies against cytoplasmic antigens, including NMM-IIA (Sigma), NMM-IIB, phospho-NMM-IIA and caspase-3 (all from Cell Signaling Technology) for 30 min at room temperature. In some cases, cells were concurrently stained with PE anti-CD34 or anti-human CD38 for subpopulation analysis. Cells were then washed and stained with anti-rabbit or mouse secondary antibodies conjugated with Alexa 647 (Invitrogen) for 30 min, followed by analysis on FACSCalibur.

[2] = system: BM CD34+-derived cells (CD41+ MK); test: Ploidy analysis of CD34+-derived cells treated with contractility inhibitors (flow cytometry); assay type: cell-based, human; conditions: for EC50: read-out: MK polyploid cell number EC50
Description: (§2) Fresh purified bone marrow (BM)-derived humanCD34^+ cells were obtained from either the Penn Xenograft Core Facility or AllCells. Cells from at least 10 different donors were used in this study. Purity of the samples (>98%) was confirmed by flow cytometry with monoclonal antibody against human CD34 conjugated to phycoerythrin (PE). All experiments were performed in hematopoietic stem cell (HSC) expansion media (StemLine-II; Sigma) supplemented with 1× antibiotics, and the following human recombinant cytokines SCF (100 ng/mL) and Tpo (100 ng/mL). In some occasions, the media was also supplemented by G-CSF (100 ng/mL). All cytokines were purchased from R&D Systems. After cells were cultured for 4 days, they were treated with different doses of cellular contractility inhibitors, including (±)-blebbistatin (EMDBiosciences), reversine, ML-7, and Y-27632 (Sigma) for indicated durations of up to 3 days. Unfortunately, longer exposure to drug proves toxic even to polyploidy cells under the present culture conditions. Cells were then resuspended in PBS/2% FBS medium and subjected to ploidy analysis: cells were stained with CD41-FITC (BD Biosciences) at room temperature for 30 min, followed by Hoechst 33342 at 37° C. for 30 min. Then cells were stained with Annexin-V-PE (BD Biosciences) in the Annexin-V staining medium, followed by addition of 7-AAD. Stained cells were subjected to flow cytometric analysis (LSR-II; BD Biosciences): only viable cells (7-AAD^− and Hoechst 33342^+) were analyzed for ploidy. Cells with the DNA content of 8 N or higher were considered polyploid. To quantify absolute number of polyploid cells, viable cell number was counted before flow cytometry by Trypan blue exclusion, and this number was multiplied by percentages of each DNA compartment and subpopulations. Each multiplied number was then normalized by initial cell input number before drug treatment in culture.

[3] = target: T1, αIIbβ3 (Homo sapiens, UniProt P05106+P08514); test: Platelet activation assay, PAC-1 binding; assay type: cell-based; conditions: 10 μM, thrombin 1 U/mL
T1 construct: endogenous in cells; host or cells: platelet-like fragments from megakaryocytes cultured from human bone-marrow CD34+ cells
T1 sequence (P08514 32-887 limits assumed): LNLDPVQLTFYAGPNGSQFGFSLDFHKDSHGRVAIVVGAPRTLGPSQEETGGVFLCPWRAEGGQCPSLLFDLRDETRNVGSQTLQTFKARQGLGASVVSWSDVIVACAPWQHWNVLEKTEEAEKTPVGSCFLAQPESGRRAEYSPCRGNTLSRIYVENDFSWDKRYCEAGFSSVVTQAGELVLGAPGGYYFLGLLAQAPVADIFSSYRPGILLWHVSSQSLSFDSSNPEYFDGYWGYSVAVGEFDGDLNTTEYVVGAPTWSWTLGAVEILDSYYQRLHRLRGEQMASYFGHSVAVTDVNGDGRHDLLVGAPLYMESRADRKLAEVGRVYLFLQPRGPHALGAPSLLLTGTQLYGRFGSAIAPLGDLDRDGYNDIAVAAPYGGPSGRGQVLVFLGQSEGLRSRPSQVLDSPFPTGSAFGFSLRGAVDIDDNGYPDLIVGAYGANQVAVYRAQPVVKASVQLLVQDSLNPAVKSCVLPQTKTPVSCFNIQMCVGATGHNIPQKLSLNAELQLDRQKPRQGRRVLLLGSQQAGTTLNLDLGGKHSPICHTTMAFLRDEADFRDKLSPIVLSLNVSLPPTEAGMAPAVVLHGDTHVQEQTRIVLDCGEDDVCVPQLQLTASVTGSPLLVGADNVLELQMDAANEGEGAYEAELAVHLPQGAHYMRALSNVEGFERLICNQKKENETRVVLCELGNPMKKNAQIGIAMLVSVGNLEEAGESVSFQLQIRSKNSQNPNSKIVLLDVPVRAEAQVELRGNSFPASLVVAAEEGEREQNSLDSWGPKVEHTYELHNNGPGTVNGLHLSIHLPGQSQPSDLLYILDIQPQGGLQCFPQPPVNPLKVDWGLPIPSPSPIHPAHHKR
T1 sequence (P08514 891-1039 partner limits assumed): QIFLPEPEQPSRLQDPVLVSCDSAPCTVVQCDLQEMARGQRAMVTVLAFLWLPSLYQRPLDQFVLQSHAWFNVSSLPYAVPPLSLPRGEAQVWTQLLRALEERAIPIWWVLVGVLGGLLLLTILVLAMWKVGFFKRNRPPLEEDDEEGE
T1 sequence (P05106 27-788): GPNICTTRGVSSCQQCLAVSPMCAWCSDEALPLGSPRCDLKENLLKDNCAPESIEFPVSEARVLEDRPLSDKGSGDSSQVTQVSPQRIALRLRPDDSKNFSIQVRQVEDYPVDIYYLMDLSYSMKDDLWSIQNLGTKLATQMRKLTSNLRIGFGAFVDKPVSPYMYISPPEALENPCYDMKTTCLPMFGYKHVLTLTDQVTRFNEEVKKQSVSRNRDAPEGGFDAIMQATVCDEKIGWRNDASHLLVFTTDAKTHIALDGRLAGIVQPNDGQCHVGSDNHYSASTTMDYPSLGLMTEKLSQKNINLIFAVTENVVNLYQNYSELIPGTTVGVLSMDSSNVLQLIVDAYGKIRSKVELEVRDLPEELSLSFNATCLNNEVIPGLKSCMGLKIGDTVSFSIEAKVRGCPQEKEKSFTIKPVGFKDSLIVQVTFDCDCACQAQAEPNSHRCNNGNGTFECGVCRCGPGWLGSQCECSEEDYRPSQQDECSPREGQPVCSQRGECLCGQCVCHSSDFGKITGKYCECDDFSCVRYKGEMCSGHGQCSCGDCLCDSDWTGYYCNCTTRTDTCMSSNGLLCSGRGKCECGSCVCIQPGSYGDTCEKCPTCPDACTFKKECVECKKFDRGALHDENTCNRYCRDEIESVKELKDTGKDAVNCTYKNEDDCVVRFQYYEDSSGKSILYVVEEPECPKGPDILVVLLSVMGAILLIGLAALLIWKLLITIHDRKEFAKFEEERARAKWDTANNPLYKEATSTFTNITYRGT
Description: For platelet-activation assays, platelet-sided fraction isolated from either MK culture or NSG blood was resuspended in Tyrode's buffer supplemented with Mg^2+ and Ca^2+, and incubated with indicated agonists for 15 min at 37° C., followed by staining with FITC-conjugated anti-human P-selectin or PAC-1 antibody (BD Bioscience), APC-conjugated anti-human CD41, and in the case of xenograft samples, PE-conjugated anti-mouse CD41 for 15 min at room temperature, followed by fixation with 1.5% paraformaldehyde. Antibody-stained samples were then analyzed by flow cytometry. Platelet number was evaluated by mixing each sample with a defined number (˜10,000 beads per sample) of APC-conjugated beads (BD Bioscience). The number of platelets per sample was evaluated by: number of CD41^+ events/number of APC-bead events multiplied by total known number of APC-bead added per sample.

[4] = system: CD34+-derived cells (HSC, MPP, CPP); test: AHR antagonist dose-response on HSC/P subpopulation number; assay type: cell-based, human
Description: Freshly purified bone marrow-derived human CD34^+ cells were obtained from either the Penn Xenograft Core Facility or AllCells (Emeryville, Calif.). Cells from at least 20 different donors were used in this study. Purity of the samples (>98%) was confirmed by flow cytometry with monoclonal antibody against human CD34. All experiments were performed in HSC expansion media (StemLine, Sigma) supplemented with 1× antibiotics, 20% BIT 9500 Serum Substitute (StemCell Technologies), 2 mM […] (Gibco) and the following human recombinant cytokines: SCF (100 ng/ml) and Tpo (100 ng/ml). In some occasions, the media was also supplemented by G-CSF (100 ng/ml), epidermal growth factor (EGF, 100 ng/ml), transforming growth factor beta 1 (TGF-beta1, 100 ng/ml), erythropoietin (EPO, 1 U/ml) and interleukin-3 (IL-3, 10 ng/ml). All cytokines were purchased from R&D Systems. After cells were cultured for 4 days, they were treated with different doses of cellular contractility inhibitors, including (±)-Blebbistatin (Bleb) (EMD Biosciences) and/or CH-223191 (Sigma) for indicated durations of up to 3 days. Cells were cultured at 37° C. in 5% CO2.
Surface marker analysis for HSC/Ps was done on either a LSR II flow cytometer or FACSCalibur (Becton Dickinson). […] Cells isolated from the bone marrow stained for 1 hr with APC anti-mouse CD47 (miap301, AbD Serotec), FITC anti-human CD47 (BD Biosciences), and PE anti-human CD11b, PE anti-human CD19 (both from BD Biosciences), or PE anti-human Glycophorin A (Invitrogen). Plts and RBCs were analyzed by staining with PE anti-mouse CD41 (eBioscience) and FITC anti-human CD41 (eBioscience) for 20 min, followed by analysis on FACSCalibur on log forward and side scatter scales.

[5] = system: CD34+-derived cells; test: Apoptosis by cleaved caspase-3 intracellular flow cytometry and Annexin-V; assay type: cell-based, human; conditions: G-CSF 100 ng/ml; CH-223191 500 nM (4n fraction)
Description: as §1

[6] = system: CD34+ cells; conditions: data from Boitano et al. (2010), cited from earlier work; for EC50: fitted, read-out: CD34+ cell number EC50
[7] = system: CD34+-derived MKs; test: Polyploid MK numbers on collagen-coated gels of different elasticity; assay type: cell-based, human
Description: as §2, with “Cells were then resuspended in PBS/2% FBS medium and subjected to ploidy analysis: cells were stained with CD41-FITC (BD Biosciences) at room temperature for 30 min, followed by Hoechst 33342 at 37° C. for 30 min. Then cells were stained with Annexin-V-PE (BD Biosciences) in the Annexin-V staining medium, followed by addition of 7-AAD.” left out, “Cells with the DNA content of 8 N or higher were considered polyploid.” left out, “Each multiplied number was then normalized by initial cell input number before drug treatment in culture.” left out

[8] = Homo sapiens, dose-response, n≥3 donors

With “EGF: epidermal growth factor, human recombinant cytokine (NSDSECPLSHDGYCLHDGVCMYIEALDKYACNCVVGYIGERCQYRDLKWWELR; UniProt P01133 971-1023, looked up)” as the molecule, how does the “effect on pS1943 level” value [1] read?
Its value is “does not show a significant effect”.

Which EC50 [2, 8] does the source give for `C[C@@H](N)[C@H]1CC[C@H](C(=O)Nc2ccncc2)CC1` [Y-27632] here?
The EC50 was 140 nM.

Which IC50 ([2]; 2 N, read-out: MK cell number in 2 N IC50) does the source give for `O=S(=O)(c1cccc2c(I)cccc12)N1CCCNCC1` [ML7, ML-7] here?
Its IC50 is 500 nM.

What about the IC50 ([2]; 4 N, read-out: MK cell number in 4 N IC50) of the same molecule?
The IC50 was 500 nM.

And the IC50 ([2]; dose-response, n≥3 donors, read-out: MK polyploid cell number IC50)?
The IC50 was 1040 nM.

With `CCCCS(=O)(=O)N[C@@H](Cc1ccc(OCCCCC2CCNCC2)cc1)C(=O)O` [Tirofiban] as the molecule, how does the “inhibition of agonist-induced PAC-1 binding” value [3] read?
Its value is “inhibits as expected”.

What does the source list for `Cc1ccccc1N=Nc1ccc(NC(=O)c2ccnn2C)c(C)c1` [CH-223191]?
HSC/P ratio ([4]; dual drug treatment with Bleb): almost doubled; EC50 ([4]; untreated and Bleb, for both, read-out: CPP number EC50): 750 nM; EC50 ([4]; untreated and Bleb, for both, read-out: MPP number EC50): 114 nM; EC50 ([4]; with 20 μM Bleb, 3 days, read-out: HSC number EC50): 211 nM; EC50 ([4]; without Bleb, 3 days, read-out: HSC number EC50): 158 nM; viability of untreated CD34+ and CD34− cells [5]: improves the viability; EC50 [6]: 74 nM

With `CC(C)n1cnc2c(NCCc3ccc(O)cc3)nc(-c3csc4ccccc34)nc21` [SR1] as the molecule, how does the EC50 [6] read?
Its EC50 is 47.4 nM.

For collagen, which “polyploid MK numbers on stiff gels, IC50 in collagen concentration” value ([7]; blebbistatin-treated cells) is on record?
Its value is roughly 0.3 ng/cm^2.

What about the “polyploid MK numbers on stiff gels, EC50 in collagen concentration” value ([7]; untreated cells) of the same molecule?
Its value is roughly 200 ng/cm^2.

Which “effect on pS1943 level” value [1] does the source give for “TGF-beta 1: transforming growth factor beta 1, human recombinant cytokine” here?
The value was “inhibits the reduction of pS1943 level”.

With `c1nc2nc(Nc3ccc(N4CCOCC4)cc3)nc(NC3CCCCC3)c2[nH]1` [reversine] as the molecule, how does the EC50 [2, 8] read?
Its EC50 is 500 nM.

And the IC50 ([2]; Homo sapiens, read-out: MK cell number in 2 N IC50)?
The IC50 was 260 nM.

And the IC50 ([2]; Homo sapiens, read-out: MK cell number in 4 N IC50)?
The IC50 was 500 nM.

With `O=c1cc(-c2ccccc2)oc2c1ccc1ccccc12` [a-napthoflavone, α-napthoflavone] as the molecule, how does the EC50 [6] read?
The EC50 was 177 nM.

What about the “concentration showing toxic effect” value [6] of the same molecule?
The value was no less than 1000 nM.
